Literature values, collected in patent US20150291659A1, “SOLOMONAMIDE ANALOGUE COMPOUNDS, PHARMACEUTICALS CONTAINING SOLOMONAMIDE ANALOGUE COMPOUNDS, AND PROCESSES FOR THE PREPARATION THEREOF” (COUNCIL OF SCIENTIFIC AND INDUSTRIAL RESEARCH, priority 2012, published 2015).

Test system: carrageenan induced paw edema
Settings: carrageenan induced paw edema model, animal-models, 100 μg/kg

C[C@@H]1C(=O)NCC(=O)N[C@H](C)C(=O)Nc2cc(O)ccc2C(=O)[C@H](O)[C@@H](NC(=O)[C@@H](N)CO)[C@@H]1O [Solomonamide A]
reduction of inflammation: ~60%
